From ChEMBL document CHEMBL1201862, “PubChem BioAssay data set” (2004)
Calls of active or inactive are those of the source.

How the values were obtained:
[1] = luciferase reporter signal suppression in cells – H4 neuroglioma cells, luminescence, dose response (AID 1990); format: functional, cell-based
[2] = molecular target: T1, Heat shock factor protein 1 (Mus musculus, UniProt P38532); assay: decrease of HSF1-responsive luciferase luminescence – cell-based, NIH3T3, dose retest, confirmation (AID 2382); format: functional;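 further: NIH3T3 fibroblasts with HSF1-driven luciferase reporter stressed by proteasome inhibitor MG132; luminescence from HSF1-driven luciferase expression after 8 hours of MG132 stress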
T1 sequence (P38532 whole entry): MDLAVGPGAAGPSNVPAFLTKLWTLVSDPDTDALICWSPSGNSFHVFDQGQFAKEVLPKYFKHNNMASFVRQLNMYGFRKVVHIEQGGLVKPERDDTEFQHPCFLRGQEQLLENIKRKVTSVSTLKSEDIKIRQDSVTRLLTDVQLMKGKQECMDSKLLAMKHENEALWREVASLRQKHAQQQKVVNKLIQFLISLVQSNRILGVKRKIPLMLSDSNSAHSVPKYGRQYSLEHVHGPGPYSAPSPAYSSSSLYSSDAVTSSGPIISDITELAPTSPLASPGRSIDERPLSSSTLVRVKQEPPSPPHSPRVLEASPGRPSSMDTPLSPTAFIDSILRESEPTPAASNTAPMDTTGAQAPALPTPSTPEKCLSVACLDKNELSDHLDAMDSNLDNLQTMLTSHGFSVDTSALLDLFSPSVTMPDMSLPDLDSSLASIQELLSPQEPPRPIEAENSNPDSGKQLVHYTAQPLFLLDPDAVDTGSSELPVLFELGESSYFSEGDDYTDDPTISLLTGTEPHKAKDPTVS

[3] = alpha-synuclein stem-loop luciferase translation blockers – H4 neuroglioma cells, luminescence, confirmation (AID 1988); format: functional, cell-based
[4] = Luminescence Cell-Based Dose Response HTS to Identify Inhibitors of 5'UTR Stem-Loop Driven Prion Protein mRNA Translation in H4 Neuroglioblastoma Cells. [Related pubchem assays: 1827 (Project Summary), 1813 (Primary HTS)]; format: functional
[5] = viability of uninfected HEp-2 cells – cell-based, HTS, cytotoxicity control for RSV inhibitor project, dose response (AID 2410); format: functional; details: human respiratory syncytial virus
[6] = molecular target: FAD-linked sulfhydryl oxidase ALR (Homo sapiens, UniProt P55789); assay: ALR-catalysed DTT oxidation blockers – biochemical, H2O2 detection, luminescence, cherry-pick, dose response (AID 493248)
H4 = assay: Luminescence Cell-Based Dose Response HTS to Identify Activators of 5'UTR Stem-Loop Driven Prion Protein mRNA Translation in H4 Neuroglioblastoma Cells. [Related pubchem assays: 1829 (Project Summary), 1814 (Primary HTS)]; format: functional; details: Homo sapiens
[7] = Luminescence Cell-Based Dose Response HTS to Identify Activators of Luciferase Translation or Activity in H4 […] Cells. [Related pubchem assays: 1829 (Project Summary), 1814 (Primary HTS)]; format: functional
[8] = molecular target: T2, Replicative DNA helicase DnaB (Mycobacterium tuberculosis, UniProt P9WMR3); assay: DnaB intein splicing inhibitors, dose response, biochemical, cell-free fluorescence (AID 449749); format: functional
T2 sequence (P9WMR3 whole entry): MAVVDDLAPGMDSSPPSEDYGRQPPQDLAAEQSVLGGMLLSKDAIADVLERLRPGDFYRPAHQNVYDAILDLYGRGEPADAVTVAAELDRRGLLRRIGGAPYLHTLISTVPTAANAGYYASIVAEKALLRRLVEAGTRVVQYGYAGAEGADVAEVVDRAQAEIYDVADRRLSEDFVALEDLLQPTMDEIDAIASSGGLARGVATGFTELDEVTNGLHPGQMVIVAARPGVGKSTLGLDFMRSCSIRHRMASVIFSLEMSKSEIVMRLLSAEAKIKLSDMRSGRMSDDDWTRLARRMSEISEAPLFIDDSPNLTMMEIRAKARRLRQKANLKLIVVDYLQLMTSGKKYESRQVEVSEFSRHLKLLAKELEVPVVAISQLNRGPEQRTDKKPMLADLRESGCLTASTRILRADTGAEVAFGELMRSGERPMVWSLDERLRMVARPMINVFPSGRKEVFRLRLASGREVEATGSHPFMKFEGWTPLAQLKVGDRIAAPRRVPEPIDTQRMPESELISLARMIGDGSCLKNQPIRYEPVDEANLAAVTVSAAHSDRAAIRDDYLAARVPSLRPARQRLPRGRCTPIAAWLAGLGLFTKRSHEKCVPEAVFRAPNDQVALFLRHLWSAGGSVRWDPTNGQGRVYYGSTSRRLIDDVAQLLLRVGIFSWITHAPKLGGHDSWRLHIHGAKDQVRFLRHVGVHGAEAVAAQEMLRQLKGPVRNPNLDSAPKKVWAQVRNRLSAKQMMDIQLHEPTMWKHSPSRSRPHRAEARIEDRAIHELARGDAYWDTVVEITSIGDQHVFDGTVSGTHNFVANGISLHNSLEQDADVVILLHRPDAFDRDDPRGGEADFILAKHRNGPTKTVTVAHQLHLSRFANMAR

Protein RecA = molecular target: T3, Protein RecA (Mycobacterium tuberculosis, UniProt P9WHJ3); assay: Fluorescence Cell-Free Homogeneous Dose Retest to Identify Inhibitors of RecA-Intein Splicing Activity. [Related pubchem assays (depositor defined):AID2097, AID2223, AID489010, AID492950]; format: functional
T3 sequence (P9WHJ3 whole entry): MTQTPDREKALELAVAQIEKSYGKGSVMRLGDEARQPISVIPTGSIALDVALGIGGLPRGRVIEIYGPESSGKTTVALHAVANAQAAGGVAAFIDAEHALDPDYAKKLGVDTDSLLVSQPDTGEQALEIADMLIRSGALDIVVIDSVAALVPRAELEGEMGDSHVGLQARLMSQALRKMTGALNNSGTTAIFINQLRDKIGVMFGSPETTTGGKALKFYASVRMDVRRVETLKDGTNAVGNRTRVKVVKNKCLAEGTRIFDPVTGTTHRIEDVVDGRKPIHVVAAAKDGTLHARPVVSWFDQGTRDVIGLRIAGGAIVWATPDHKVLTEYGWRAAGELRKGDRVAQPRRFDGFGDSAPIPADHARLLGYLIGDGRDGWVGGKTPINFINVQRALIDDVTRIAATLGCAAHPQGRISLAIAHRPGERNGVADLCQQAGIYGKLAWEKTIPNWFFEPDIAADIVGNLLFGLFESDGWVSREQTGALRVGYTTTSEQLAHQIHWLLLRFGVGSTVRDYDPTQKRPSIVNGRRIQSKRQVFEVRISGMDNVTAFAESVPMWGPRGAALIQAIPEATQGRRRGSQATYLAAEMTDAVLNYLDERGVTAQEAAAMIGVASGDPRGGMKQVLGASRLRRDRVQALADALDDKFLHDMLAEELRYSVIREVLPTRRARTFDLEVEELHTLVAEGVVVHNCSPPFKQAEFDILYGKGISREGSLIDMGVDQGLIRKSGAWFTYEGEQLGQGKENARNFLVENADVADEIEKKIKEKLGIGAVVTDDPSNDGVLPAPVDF

Fatty acid synthase [9] = molecular target: T4, Fatty acid synthase (Homo sapiens, UniProt P49327); assay: inhibition of human FAS-TE enzyme activity – biochemical, endpoint fluorescence intensity, uHTS hits, dose response (AID 624327); format: functional;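 further: fluorescence from hydrolysis of an O-methyl fluorescein acyl ester substrate by the enzyme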
Fatty acid synthase [10] = molecular target: T4, Fatty acid synthase; assay: inhibition of human FAS-TE enzyme activity – biochemical, kinetic fluorescence intensity, dose response (AID 624326); format: functional;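 further: rate of fluorescence rise from hydrolysis of a fluorogenic O-methyl fluorescein ester substrate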
[11] = molecular target: T1, Heat shock factor protein 1; assay: enhancement of HSF1-driven luciferase signal – cell-based, NIH3T3, luminescence, dose retest, confirmation (AID 435004); format: functional;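 further: stress induced by proteasome inhibitor MG132 added 30 min after compound; luciferase reporter driven by HSF1 response element in NIH3T3 cells; actives raise luminescence as potentiators of the MG132 stress response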

T4 sequence (P49327 whole entry): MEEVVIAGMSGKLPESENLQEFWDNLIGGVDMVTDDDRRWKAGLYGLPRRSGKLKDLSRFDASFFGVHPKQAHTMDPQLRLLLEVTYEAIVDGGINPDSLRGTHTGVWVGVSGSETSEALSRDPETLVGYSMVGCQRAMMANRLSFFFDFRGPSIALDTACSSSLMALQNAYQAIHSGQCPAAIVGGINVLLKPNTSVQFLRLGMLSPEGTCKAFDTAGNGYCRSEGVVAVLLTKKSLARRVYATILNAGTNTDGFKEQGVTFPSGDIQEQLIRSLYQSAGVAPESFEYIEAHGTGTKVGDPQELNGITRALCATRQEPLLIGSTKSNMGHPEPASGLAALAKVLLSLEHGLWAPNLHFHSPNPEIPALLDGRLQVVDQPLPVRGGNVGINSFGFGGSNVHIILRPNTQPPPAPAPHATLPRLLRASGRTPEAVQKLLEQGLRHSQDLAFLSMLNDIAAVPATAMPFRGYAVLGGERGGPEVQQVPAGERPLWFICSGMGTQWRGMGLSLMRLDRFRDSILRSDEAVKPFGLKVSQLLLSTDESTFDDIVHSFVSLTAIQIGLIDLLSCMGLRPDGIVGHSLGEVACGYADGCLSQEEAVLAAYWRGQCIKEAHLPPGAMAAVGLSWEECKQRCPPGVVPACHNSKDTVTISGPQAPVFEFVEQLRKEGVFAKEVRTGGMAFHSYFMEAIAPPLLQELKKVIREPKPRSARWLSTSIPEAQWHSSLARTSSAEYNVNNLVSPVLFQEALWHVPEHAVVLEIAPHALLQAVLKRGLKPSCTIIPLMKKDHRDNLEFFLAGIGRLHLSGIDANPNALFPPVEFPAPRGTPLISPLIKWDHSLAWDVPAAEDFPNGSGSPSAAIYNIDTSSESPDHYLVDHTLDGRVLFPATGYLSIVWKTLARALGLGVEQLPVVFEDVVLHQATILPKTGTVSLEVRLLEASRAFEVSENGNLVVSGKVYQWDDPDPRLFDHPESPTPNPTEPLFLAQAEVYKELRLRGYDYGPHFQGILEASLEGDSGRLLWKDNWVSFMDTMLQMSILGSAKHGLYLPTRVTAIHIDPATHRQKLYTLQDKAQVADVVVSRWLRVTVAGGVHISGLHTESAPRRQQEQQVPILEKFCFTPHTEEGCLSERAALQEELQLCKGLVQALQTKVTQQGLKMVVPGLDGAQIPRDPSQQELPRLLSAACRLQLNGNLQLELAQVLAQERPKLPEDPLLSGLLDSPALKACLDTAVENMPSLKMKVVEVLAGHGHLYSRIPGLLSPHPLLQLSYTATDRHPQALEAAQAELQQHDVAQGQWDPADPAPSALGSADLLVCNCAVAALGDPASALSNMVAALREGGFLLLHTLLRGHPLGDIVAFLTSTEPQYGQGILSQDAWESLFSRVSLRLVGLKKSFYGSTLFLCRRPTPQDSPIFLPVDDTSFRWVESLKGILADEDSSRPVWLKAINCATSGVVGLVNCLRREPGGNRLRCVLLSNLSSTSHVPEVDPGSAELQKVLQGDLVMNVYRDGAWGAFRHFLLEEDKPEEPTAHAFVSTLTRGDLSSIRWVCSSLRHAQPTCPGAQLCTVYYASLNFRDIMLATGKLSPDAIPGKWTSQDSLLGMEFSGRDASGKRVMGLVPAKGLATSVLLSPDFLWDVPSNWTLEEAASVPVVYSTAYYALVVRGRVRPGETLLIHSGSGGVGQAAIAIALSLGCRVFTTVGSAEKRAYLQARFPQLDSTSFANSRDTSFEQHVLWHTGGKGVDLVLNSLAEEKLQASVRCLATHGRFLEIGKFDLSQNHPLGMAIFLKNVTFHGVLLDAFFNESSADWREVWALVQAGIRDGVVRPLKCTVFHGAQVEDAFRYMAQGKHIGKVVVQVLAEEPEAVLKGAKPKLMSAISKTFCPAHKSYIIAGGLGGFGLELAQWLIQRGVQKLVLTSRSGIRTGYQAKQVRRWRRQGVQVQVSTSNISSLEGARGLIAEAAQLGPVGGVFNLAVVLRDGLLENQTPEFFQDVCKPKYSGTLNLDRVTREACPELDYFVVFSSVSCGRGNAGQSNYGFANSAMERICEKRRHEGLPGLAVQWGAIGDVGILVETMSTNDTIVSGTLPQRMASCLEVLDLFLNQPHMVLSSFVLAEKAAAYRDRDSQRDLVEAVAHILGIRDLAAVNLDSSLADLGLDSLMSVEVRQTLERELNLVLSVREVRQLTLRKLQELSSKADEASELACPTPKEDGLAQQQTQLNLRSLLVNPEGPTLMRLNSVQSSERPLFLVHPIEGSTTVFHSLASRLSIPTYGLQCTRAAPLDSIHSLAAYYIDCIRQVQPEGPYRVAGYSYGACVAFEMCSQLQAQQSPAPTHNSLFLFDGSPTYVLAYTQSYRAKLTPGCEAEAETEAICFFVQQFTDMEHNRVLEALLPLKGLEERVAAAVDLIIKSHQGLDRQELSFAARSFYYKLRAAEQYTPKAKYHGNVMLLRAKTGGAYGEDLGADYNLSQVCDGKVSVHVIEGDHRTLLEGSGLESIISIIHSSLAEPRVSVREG
FAD-linked sulfhydryl oxidase ALR, sequence (P55789 whole entry): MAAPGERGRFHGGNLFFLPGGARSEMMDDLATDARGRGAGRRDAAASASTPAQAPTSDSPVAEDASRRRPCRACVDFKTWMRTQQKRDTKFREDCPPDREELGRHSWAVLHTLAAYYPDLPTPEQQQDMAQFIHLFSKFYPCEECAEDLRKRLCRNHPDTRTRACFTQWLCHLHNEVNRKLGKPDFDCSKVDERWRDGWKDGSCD

## COCCN(Cc1ccccc1)C(S)=Nc1ccc(Cl)cc1
[1]
  EC50: > 120 µM (not active)
[2]
  EC50: 30.3 µM (active)
[3]
  EC50: 16.8 µM (active)
[4]
  EC50: > 120 µM (not active)

## Cc1cc(C)c2c(c1)cc(C)c1nnc(SCC(=O)N3CCCc4ccccc43)n12
[5]
  CC50: 44.2 µM (active)

## CCOc1ccc(S(=O)(=O)N2CCC(C(=O)NCC(=O)Nc3cccc(Cl)c3C)CC2)cc1
[5]
  CC50: 49.1 µM (active)

## CCC(=O)c1cc(F)c(N2CCN(C(=O)Cc3ccccc3)CC2)cc1C
[5]
  CC50: 17 µM (active)

## CC(C(=O)NC1C=CS(=O)(=O)C1)N1C(=O)/C(=C\c2ccccc2)SC1=S (configuration not stated)
[6]
  AC50: 0.359 µM (active)

## CCOC(=O)c1ccc2[nH]c3c(c2c1)CCCC3O (configuration not stated)
[5]
  CC50: 47.1 µM (active)

## Cc1ccc2oc(-c3cccc(NC(=O)Cn4cnc5c(=O)n(C)c(=O)n(C)c54)c3)nc2c1
H4
  EC50: 6.94 µM (active)
[7]
  EC50: 42.3 µM (active)

## c1ccc(Sc2ncnc3ccccc23)cc1
[8]
  AC50: 21.9 µM (active)
Protein RecA
  EC50: 11.2 µM (active)

## CC(=O)Nc1ccc(N2C(=O)CSC2c2ccc(F)cc2)cc1 (configuration not stated)
[6]
  AC50: < 0.005 µM (active)

## CCN(CC)c1ccc(NS(=O)(=O)c2ccc3c(c2)oc(=O)n3C)c(C)c1
[6]
  AC50: 0.409 µM (active)

## CC(C(=O)NCCc1ccccc1)N1c2cccc3cccc(c23)S1(=O)=O (configuration not stated)
[5]
  CC50: 45.6 µM (active)

## CCN(CC)c1ccc(NS(=O)(=O)c2ccc(OC)cc2)cc1
[6]
  AC50: 5.11 µM (active)

## Cc1ccc(/C=C/c2ccc(=O)n(Cc3ccc(F)cc3)n2)cc1
Fatty acid synthase [9]
  IC50: 11.8 µM (active)
Fatty acid synthase [10]
  IC50: 14 µM (active)

## CC(=O)Nc1sc(NC(=O)c2ccccc2)nc1-c1cccs1
[6]
  AC50: 3.14 µM (active)

## COc1ccc(-c2ncc3ccccn23)cc1
H4
  EC50: 32.1 µM (active)
[7]
  EC50: 101 µM (active)

## COc1ccc(C(=O)CN(CCC(=O)O)S(=O)(=O)c2ccc([N+](=O)[O-])cc2)cc1
Fatty acid synthase [9]
  IC50: 3.51 µM (active)
Fatty acid synthase [10]
  IC50: 6.15 µM (active)

## COc1ccc(-c2cc(-c3ccccc3O)[nH]n2)cc1OC
[5]
  CC50: > 50 µM (active)

## COc1ccc(NC(=O)N2CCN(c3nc(-c4cccc(OC)c4)cs3)CC2)cc1
[5]
  CC50: 9.75 µM (active)

## Cc1onc(-c2ccccc2)c1C(=O)n1nnc2ccccc21
Fatty acid synthase [9]
  IC50: 12.9 µM (active)
[8]
  AC50: 7.85 µM (active)
Protein RecA
  EC50: 13 µM (active)
Fatty acid synthase [10]
  IC50: 10.3 µM (active)

## O=[N+]([O-])c1ccc(CSc2ccc(S(=O)(=O)N3CCCC3)cn2)cc1
Fatty acid synthase [9]
  IC50: 12.1 µM (active)
Fatty acid synthase [10]
  IC50: 10.6 µM (active)

## Cc1c(Br)c([N+](=O)[O-])nn1CC(=O)N1CCc2ccccc2C1
Fatty acid synthase [9]
  IC50: 4.38 µM (active)
Fatty acid synthase [10]
  IC50: 6.67 µM (active)

## CCc1cccc(NC(=O)c2cccc3c2C(=O)N(C2CCCCC2)C3)c1
[5]
  CC50: 38.1 µM (active)

## COC(=O)Nc1nn(-c2ccc(OC)cc2)c(=O)c(C#N)c1C
[8]
  AC50: 25.9 µM (active)
Protein RecA
  EC50: 6.31 µM (active)

## COc1ccc(N2CCN(C(=O)c3ccc(-n4nc(C)cc4C)cc3)CC2)cc1
[5]
  CC50: 42 µM (active)

## CC(OC(=O)c1cccc([N+](=O)[O-])c1)C(=O)N1CCc2ccccc21 (configuration not stated)
Fatty acid synthase [9]
  IC50: 3.92 µM (active)
Fatty acid synthase [10]
  IC50: 3.98 µM (active)

## CC[C@@H]1[C@H]2CCCC(=O)N3CC[C@@H](C[C@@H]1Nc1ccccc1)[C@@H]23
[6]
  AC50: 0.008 µM (active)
[11]
  EC50: > 260 µM (inactive)

## O=C(COC(=O)c1cc([N+](=O)[O-])ccc1N1CCOCC1)c1ccccc1
Fatty acid synthase [9]
  IC50: 9.63 µM (active)
Fatty acid synthase [10]
  IC50: 6.51 µM (active)

## CCCC(C)C1c2c(c(C)c(C)oc2=O)Oc2c(C)c(C)oc(=O)c21 (configuration not stated)
Fatty acid synthase [9]
  IC50: 9.33 µM (active)
Fatty acid synthase [10]
  IC50: 8.38 µM (active)

## CCS(=O)(=O)N1CCN=C1SCc1cccnc1
[6]
  AC50: 2.06 µM (active)

## O[C@H]1C[C@H](c2ccccc2)N(CC2CCCCC2)C[C@@H]1n1cc(C2CC2)nn1
Fatty acid synthase [9]
  IC50: 8.28 µM (active)
Fatty acid synthase [10]
  IC50: 6.52 µM (active)

## C/C(CC(=O)NCc1ccco1)=N\NC(=O)c1ccc([N+](=O)[O-])cc1Cl
[8]
  AC50: 10.2 µM (active)
Protein RecA
  EC50: 5.56 µM (active)

## COc1ccc(C2=NC(c3ccccc3)CO2)cc1 (configuration not stated)
[7]
  EC50: 39.5 µM (active)

## CN(C)c1ccc(/C=N/NC(=O)CNC(=O)c2ccncc2)cc1
[6]
  AC50: 3.61 µM (active)

## CCOC(=O)N/N=C1\CCc2ccccc21
H4
  EC50: 11.7 µM (active)
[7]
  EC50: 7.73 µM (active)

## COC(=O)N/N=C\c1ccc(OC(=O)c2ccco2)cc1
[8]
  AC50: 44.6 µM (active)
Protein RecA
  EC50: 16.7 µM (active)
